# Assay results published in patent publication US8207090B2, “Process for the anti-germination and/or biocide treatment of bulbs or tubers by means of CIPC and a terpene or terpene oil” (Xeda International, priority 2005, dated 2012).
# Columns and labels:
# [1] = test system: potatoes; settings: cited from earlier work; for Inhibition of tuber sprouts: in combination with CIPC
# [2] = in conventional solvents, cited from earlier work
# [3] = Solubility of CIPC in solvents / terpenes; format: physicochemical; settings: with terpenes/terpene oils, at ambient temperature and as low as 0° C.
# Experimental: Furthermore, CIPC dissolves with difficulty in conventional solvents, and maximum CIPC concentrations of approximately 30% (weight/volume) are generally obtained. At best, concentrations of approximately 54% at […] have been obtained. This low solubility entails the use of large amounts of solvent and/or formulation in order to obtain the required amounts of active ingredient. Nevertheless, efforts are generally made to limit the use of these solvents owing to their inherent toxicity and/or the danger of use that they entail, especially as a result of their low boiling points, which result in high risks of flammability.
# It has now been discovered, and this is one of the subjects of the present invention, that terpenes and/or terpene oils, in particular eugenol, isoeugenol or clove oil, have a high capacity to dissolve CIPC, even in cases in which the two agents are applied separately. In particular, the use of terpenes and/or terpene oils of this type, applied before or after the CIPC, allows improved distribution of the CIPC on the potatoes. The separate application of the terpene or terpene oil therefore allows improved application, and accordingly penetration and efficacy, of the CIPC. […]
smiles,measurement,setting,value
C=C(C)[C@H]1CC=C(C)CC1 [limonene],Inhibition of tuber sprouts,[1],does not produce positive results
"CC(C)OC(=O)Nc1cccc(Cl)c1 [CIPC, 3-chlorophenylisopropylcarbamate]","CIPC concentration, at best",[2]; at 180° C.,approximately 54%
same,Maximum CIPC concentration,[2],approximately 30 % (weight/volume)
same,CIPC concentration,[3],greater than 50 % by weight of CIPC relative to the total volume of the solution
C=C(C)C1CC=C(C)C(=O)C1 (stereo not drawn) [carvone],Treated batches of potatoes suitable for sale,"[1]; dosage of 16.6 ppm, agent on its own",0%
CC/C=C\CC1=C(C)CCC1=O [jasmone],Inhibition of tuber sprouts,[1],does not produce positive results
